In series [1] the test system is Radical scavenging activity. In words: Antioxidant activity assessed as DPPH free radical scavenging activity at 0.1 mM after 20 mins. The format is functional. Background: The DPPH test is a chemical assay of radical scavenging.
A further series concerns Glycine max. In words: Inhibition of soybean lipoxygenase assessed as conversion of sodium linoleate to 13-hydroperoxylinoleic acid at 0.1 mM.
In series [2] the test system is Radical scavenging activity. Kind of series: Antioxidant activity assessed as DPPH free radical scavenging activity at 0.05 mM after 20 mins. Format: functional.
A short description of series [3]: Antioxidant activity against Fe3+/ascorbic acid system generated hydroxyl radicals assessed as inhibition of formaldehyde production at 0.1 mM. Format: functional. On the set-up: scale not given: the % may be the effect or the level left.
Series [4] concerns Radical scavenging activity. Kind of series: Antioxidant activity assessed as DPPH free radical scavenging activity at 0.1 mM after 60 mins. Format: functional.
The test system of series [5] is Radical scavenging activity. Kind of series: Antioxidant activity assessed as DPPH free radical scavenging activity at 0.05 mM after 60 mins. Format: functional.
Series [6] relates to Rattus norvegicus. In words: Antiinflammatory activity in Fisher 344 rat assessed as inhibition of carrageenan-induced paw edema at 0.01 mmol/kg, ip after 3.5 hrs. The settings on record: Fisher 344, ip. Format: functional. (Carrageenan injected into the paw causes an acute inflammation.)
A short description of series [7]: Antioxidant activity assessed as superoxide radical scavenging activity at 0.1 mM after 2 mins by nitroblue tetrazolium method. Format: functional.
Series [8] deals with Rattus norvegicus. In words: Toxicity in Fisher 344 rat assessed as body weight change per 100 g of animal at 0.01 mmol/kg, ip administered daily once for 4 days measured after 24 hrs final post dose. Format: organism-based. The following applies: in vivo.
Series [9] has as its system Rattus norvegicus. Kind of series: Toxicity in Fisher 344 rat assessed as gastrointestinal ulcer at 0.01 mmol/kg, ip administered daily once for 4 days measured after 24 hrs final post dose. The format is organism-based. The following applies: in vivo.
For series [10], the system named is Rattus norvegicus. Kind of series: Toxicity in Fisher 344 rat assessed as melena defecation at 0.01 mmol/kg, ip administered daily once for 4 days measured after 24 hrs final post dose. Format: organism-based. The settings on record: in vivo.
A short description of series [11]: Toxicity in Fisher 344 rat assessed as mortality at 0.01 mmol/kg, ip administered daily once for 4 days measured after 24 hrs final post dose. The format is organism-based. The following applies: in vivo, read-out: Activity.
A short description of series [12]: Inhibition of soybean lipoxygenase assessed as conversion of sodium linoleate to 13-hydroperoxylinoleic acid. Further details: species or system Glycine max.

pIC50: −log10 of the molar value. Active and inactive are the calls of the source. The calls are words filed in the database; no cut-off is given here.

As for `COC(=O)c1cc(=O)oc2cc3c(cc12)CCC3`, the Activity in series [1] is 14%; in [2], 19%; in series [3], 64%; in series [4], 27%; in series [5], 22%. The inhibition in the series with Glycine max came to 10%.
As for `COC(=O)c1cc(=O)oc2cc3c(cc12)CCCC3`, the inhibition in vivo at 10 µmol/kg in the series on Rattus norvegicus [6] is 43.4%. The Activity in [7] came out at 100%; in series [1], 12%; in series [2] it was 12%; in [3], 74%; in series [4], 25%; in [5], 21%. For the same compound, the inhibition in the series on Glycine max turned out to be 78%.
Regarding `COc1ccc2c(c1)c(CC(=O)O)c(C)n2C(=O)c1ccc(Cl)cc1` [INDOMETHACIN], the inhibition in vivo at 10 µmol/kg in the series on Rattus norvegicus [6] came to 47%. In addition, the results for the Activity in the series on Rattus norvegicus [8], in the series on Rattus norvegicus [9] and in the series with Rattus norvegicus [10] were -9 g, 78% and “Non-toxic”, respectively. The mortality at 24 h in [11] is 50%.
With `Cc1c(C)c2c(c(C)c1O)CCC(C)(C(=O)O)O2` (centres undefined), in series [3], the Activity came to 88%.
With `COC(=O)c1cc(=O)oc2c3c(ccc12)CCCC3`, the inhibition in vivo at 10 µmol/kg in the series with Rattus norvegicus [6] was found to be 62%. In addition, the outcome in series [7], in series [1], in [3] and in series [4] was inactive. Further, the results for the Activity in series [2] and in series [5] were 27% and 31%, respectively. Also, the pIC50 in [12] was 4.00.
For the compound `COC(=O)c1cc(=O)oc2ccc3c(c12)CCCC3`, in the series on Rattus norvegicus [6], the inhibition in vivo at 10 µmol/kg came out at 34%. Also, the result in series [7] was inactive. In addition, the Activity was 18% in [1]; 14% in [2]; 53% in series [3]; 20% in [4]; 17% in series [5]. The inhibition in the series on Glycine max stood at 31%.
In the case of `O=C(O)/C=C/c1ccc(O)c(O)c1` [CAFFEIC ACID], the Activity in series [7] is 46%. In [12], the pIC50 is 3.22.
Turning to `O=c1ccc2ccc3c(c2o1)CCCC3`, the inhibition in vivo at 10 µmol/kg in the series with Rattus norvegicus [6] worked out at 54%. The results for the Activity in series [7], in [2] and in series [5] were 16%, 25% and 15%, respectively. Also, the outcome in series [1], in series [3] and in series [4] was inactive. The inhibition in the series with Glycine max stood at 4%.
In the case of `COC(=O)c1cc(=O)oc2cc3c(cc12)OCO3`, the inhibition in vivo at 10 µmol/kg in the series with Rattus norvegicus [6] came to 45.5%. Moreover, the Activity worked out at 9% in series [1]; 12% in [2]; 78% in [3]; 21% in series [4]; 18% in [5]. Moreover, the inhibition in the series on Glycine max is 0%.
For the compound `COC(=O)c1cc(=O)oc2c3c(ccc12)OC(C)(C)C3`, the inhibition in vivo at 10 µmol/kg with Rattus norvegicus [6] was found to be 65%. Further, the Activity in the series with Rattus norvegicus [8] is 2.5 g; in series [2] it was 11%; in the series with Rattus norvegicus [9], 0%; in the series on Rattus norvegicus [10], “Toxic”; in series [3], 72%; in series [5] it was 12%. In addition, the outcome in [7], in series [1] and in [4] was inactive. For the same compound, the inhibition in the series on Glycine max was 4%. Further, the mortality at 24 h in series [11] was found to be 0%.
`CC(Cc1ccc(O)c(O)c1)C(C)Cc1ccc(O)c(O)c1` (centres undefined): the Activity in series [1] was determined as 65%; in series [2], 63%; in series [4], 83%; in [5], 81%.

A word on the inhibition: it is the change of the read-out against control, counted positive when it falls. Usually inhibition in vivo stands for the drop in the measured response relative to a control, in per cent. In general, pIC50 refers to the negative decadic logarithm of the IC50, by convention in mol/L.

Values taken from ChEMBL document CHEMBL1154172, “Synthesis and anti-inflammatory evaluation of novel angularly or linearly fused coumarins” (Eur J Med Chem, 2009).
